Results published in ChEMBL document CHEMBL1201862, “PubChem BioAssay data set” (2004).
Calls of active or inactive are those of the source. Cut-off read from the data, not from the text of the source, for most assays here: actives have a measured EC50 and inactives only a lower limit.

Tests used:
[1] = cytotoxicity toward NIH3T3 fibroblasts, dose response, counter-screen, cell-based, ATP luminescence, mouse fibroblasts (AID 2010); assay type: functional;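 note: cells exposed to compound for about 90 hours before reading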
[2] = target: T1, Ubiquitin-conjugating enzyme E2 N (Homo sapiens, UniProt P61088); assay type: functional;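 note: Dose-response confirmation in a TR-FRET assay detecting UBC13-driven polyubiquitin chain formation, inhibition measured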
T1 sequence (P61088 whole entry): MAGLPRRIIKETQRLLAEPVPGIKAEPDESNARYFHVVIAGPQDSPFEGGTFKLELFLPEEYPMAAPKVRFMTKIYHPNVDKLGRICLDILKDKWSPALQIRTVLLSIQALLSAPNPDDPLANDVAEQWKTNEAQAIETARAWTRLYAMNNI

[3] = inhibitors of intracellular T. cruzi replication, confirmation, NIH3T3 host cells, beta-gal luminescence (AID 2044); assay type: functional, cell-based;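 note: intracellular parasites grown in NIH/3T3 mouse fibroblasts as host cells; luminescent beta-galactosidase reporter signal from transgenic T. cruzi replicating inside host cells; inhibitors lower the luminescence signal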
[4] = target: T2, Heat shock factor protein 1 (Mus musculus, UniProt P38532); test: HSF1 potentiators in luciferase reporter cells, confirmation, cell-based, NIH3T3, luminescence, dose retest (AID 435004); assay type: functional;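 note: stress induced by proteasome inhibitor MG132 added 30 min after compound; luciferase reporter driven by HSF1 response element in NIH3T3 cells; actives raise luminescence as potentiators of the MG132 stress response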
T2 sequence (P38532 whole entry): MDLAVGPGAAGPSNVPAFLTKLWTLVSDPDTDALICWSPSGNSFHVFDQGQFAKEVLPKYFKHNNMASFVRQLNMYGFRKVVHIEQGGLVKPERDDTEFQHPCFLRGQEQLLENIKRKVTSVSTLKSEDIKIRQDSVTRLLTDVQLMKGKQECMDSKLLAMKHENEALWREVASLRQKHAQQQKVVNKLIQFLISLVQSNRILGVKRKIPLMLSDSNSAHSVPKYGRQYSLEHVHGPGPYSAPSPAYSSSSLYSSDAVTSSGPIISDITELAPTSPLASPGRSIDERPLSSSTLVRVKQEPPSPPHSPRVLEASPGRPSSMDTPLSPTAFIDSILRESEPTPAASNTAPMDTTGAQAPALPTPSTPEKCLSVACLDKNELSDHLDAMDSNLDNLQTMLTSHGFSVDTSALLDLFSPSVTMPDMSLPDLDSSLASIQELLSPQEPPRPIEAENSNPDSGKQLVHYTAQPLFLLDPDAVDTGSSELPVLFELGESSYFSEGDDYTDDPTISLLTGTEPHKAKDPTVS

[5] = Luminescence Cell-Based Dose Response HTS to Identify Inhibitors of 5'UTR Stem-Loop Driven Prion Protein mRNA Translation in H4 Neuroglioblastoma Cells. [Related pubchem assays: 1827 (Project Summary), 1813 (Primary HTS)]; assay type: functional
[6] = inhibitors of firefly luciferase expression or activity, dose response, H4 neuroglioma cells, luminescence (AID 1990); assay type: functional, cell-based
INS1 = test: beta cell apoptosis inhibitors, cytokine rescue, dose response, luminescence, retest (AID 449756); assay type: functional, cell-based; details: Rattus norvegicus;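 note: cell death triggered by IL-1 beta plus TNF-alpha plus IFN-gamma mixture; protective hits raise ATP signal compared with cytokine alone wells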
Paired box protein Pax-8 = Paired box protein Pax-8 (Homo sapiens, UniProt Q06710); test: inhibitors of PAX8-driven TPO luciferase reporter, dose response, RMG-I cells, cherry-pick (AID 687027); assay type: functional, cell-based;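 note: luciferase reporter driven by Pax8 target thyroperoxidase promoter measured by SteadyGlo luminescence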
[7] = non-specific cell cytotoxicity, dose response, cytotoxicity control for PAX8 inhibitor project, plate reader, dry powder samples (AID 743021); assay type: functional, cell-based
[8] = inhibitors of SNCA 5'UTR-driven reporter translation, confirmation, H4 neuroglioma cells, luminescence (AID 1988); assay type: functional, cell-based
[9] = target: T3, High affinity choline transporter 1 (Homo sapiens, UniProt Q9GZV3); test: CHT inhibitors, dose response, cell-based, 5-point CRC, membrane potential dye (AID 504840); assay type: functional
T3 sequence (Q9GZV3 whole entry): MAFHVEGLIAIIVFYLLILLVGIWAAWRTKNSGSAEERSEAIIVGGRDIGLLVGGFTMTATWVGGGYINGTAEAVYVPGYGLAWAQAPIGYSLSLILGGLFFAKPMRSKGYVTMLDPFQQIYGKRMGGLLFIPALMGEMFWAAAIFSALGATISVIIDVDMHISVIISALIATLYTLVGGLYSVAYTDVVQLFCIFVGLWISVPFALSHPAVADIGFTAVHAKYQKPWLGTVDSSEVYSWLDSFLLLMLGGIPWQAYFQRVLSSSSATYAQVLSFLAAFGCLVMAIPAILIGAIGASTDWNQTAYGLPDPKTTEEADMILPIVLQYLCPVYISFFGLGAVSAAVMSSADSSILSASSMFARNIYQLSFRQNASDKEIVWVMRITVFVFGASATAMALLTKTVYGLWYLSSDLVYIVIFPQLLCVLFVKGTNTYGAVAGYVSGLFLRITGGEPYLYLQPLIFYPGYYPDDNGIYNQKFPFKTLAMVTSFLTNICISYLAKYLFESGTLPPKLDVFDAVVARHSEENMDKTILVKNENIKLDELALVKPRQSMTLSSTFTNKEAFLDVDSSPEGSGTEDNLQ

[10] = target: Eukaryotic translation initiation factor 4E (Mus musculus, UniProt P63073); test: eIF4E–eIF4G protein interaction inhibitors, dose response, biochemical, TR-FRET (AID 855); assay type: functional;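 note: potency for disrupting eIF4E binding to eIF4GI seen as loss of FRET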
[11] = NIH-3T3 fibroblast cytotoxicity, dose response, cytotoxicity control, cell-based, fluorescence, Alamar Blue, secondary assay (AID 2327); assay type: functional;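 note: NIH-3T3 mouse fibroblasts cultured with fluconazole at 8 µg/mL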
Aminopeptidase N = target: T4, Aminopeptidase N (Plasmodium falciparum FcB1/Columbia, UniProt O96935); test: P. falciparum M1AAP inhibitors, biochemical, fluorogenic H-Leu-NHMec substrate, 1536-well (AID 1445); parameters: species or system Plasmodium falciparum 3D7, 3D7
T4 sequence (O96935 whole entry): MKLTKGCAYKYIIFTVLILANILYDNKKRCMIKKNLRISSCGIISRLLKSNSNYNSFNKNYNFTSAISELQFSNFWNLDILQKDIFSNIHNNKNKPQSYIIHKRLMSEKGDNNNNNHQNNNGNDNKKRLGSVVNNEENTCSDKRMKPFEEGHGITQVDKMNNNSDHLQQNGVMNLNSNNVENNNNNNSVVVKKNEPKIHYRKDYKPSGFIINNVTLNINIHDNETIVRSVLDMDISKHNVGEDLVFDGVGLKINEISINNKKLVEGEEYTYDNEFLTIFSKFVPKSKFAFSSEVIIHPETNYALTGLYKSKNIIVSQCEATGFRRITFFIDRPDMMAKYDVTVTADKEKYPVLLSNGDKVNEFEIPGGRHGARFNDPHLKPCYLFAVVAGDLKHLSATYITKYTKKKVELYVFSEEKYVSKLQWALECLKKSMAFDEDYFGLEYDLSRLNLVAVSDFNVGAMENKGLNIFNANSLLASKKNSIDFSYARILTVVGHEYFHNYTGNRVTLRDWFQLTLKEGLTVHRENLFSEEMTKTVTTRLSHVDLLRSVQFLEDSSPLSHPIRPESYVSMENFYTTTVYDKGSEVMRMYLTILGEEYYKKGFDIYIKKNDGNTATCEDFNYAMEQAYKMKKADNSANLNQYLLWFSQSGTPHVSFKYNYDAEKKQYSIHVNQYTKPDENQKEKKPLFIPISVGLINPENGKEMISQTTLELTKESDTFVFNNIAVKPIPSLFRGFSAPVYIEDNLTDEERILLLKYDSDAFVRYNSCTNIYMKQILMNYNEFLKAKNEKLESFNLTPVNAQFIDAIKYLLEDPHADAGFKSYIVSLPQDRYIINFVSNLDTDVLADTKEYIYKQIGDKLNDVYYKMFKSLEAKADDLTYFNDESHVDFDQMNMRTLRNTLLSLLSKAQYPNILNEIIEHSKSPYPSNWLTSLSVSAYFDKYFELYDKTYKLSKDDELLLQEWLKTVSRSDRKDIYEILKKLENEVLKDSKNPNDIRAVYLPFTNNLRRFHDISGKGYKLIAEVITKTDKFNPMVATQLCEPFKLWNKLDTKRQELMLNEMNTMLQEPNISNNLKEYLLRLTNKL

[12] = tested on: Streptococcus sp. 'group A'; test: growth inhibition of control SK(-) GAS strain, dose response, counter-screen for streptokinase expression inhibitor project, luminescence, kanamycin, BacTiterGlo, confirmation (AID 1900); assay type: functional, organism-based
Albumin = Albumin (Bos taurus, UniProt P02769); test: Counterscreen for inhibitors of T-cell receptor (TCR)-CD3 interaction: Fluorescence-based biochemical high throughput dose response assay to identify inhibitors of T-cell receptor (TCR)-CD3 interaction using a TAMRA-labeled BSA probe.; assay type: functional
Streptococcus = test: Group A Streptococcus viability loss, dose response, counter-screen for streptokinase expression inhibitor project, luminescence, BacTiterGlo (AID 1915); assay type: functional, organism-based;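 note: potency for reduction of bacterial viability or growth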
[13] = target: T5, Long-chain-fatty-acid--AMP ligase FadD28 (Mycobacterium tuberculosis, UniProt P9WQ59); test: Fluorescence polarization aasay to screen for inhibitors that compete for the binding of FadD28 to a bisubstrate Measured in Biochemical System Using Plate Reader - 2147-01_Inhibitor_Dose_CherryPick_Activity.; assay type: functional, Mycobacterium tuberculosis H37Rv
T5 sequence (P9WQ59 whole entry): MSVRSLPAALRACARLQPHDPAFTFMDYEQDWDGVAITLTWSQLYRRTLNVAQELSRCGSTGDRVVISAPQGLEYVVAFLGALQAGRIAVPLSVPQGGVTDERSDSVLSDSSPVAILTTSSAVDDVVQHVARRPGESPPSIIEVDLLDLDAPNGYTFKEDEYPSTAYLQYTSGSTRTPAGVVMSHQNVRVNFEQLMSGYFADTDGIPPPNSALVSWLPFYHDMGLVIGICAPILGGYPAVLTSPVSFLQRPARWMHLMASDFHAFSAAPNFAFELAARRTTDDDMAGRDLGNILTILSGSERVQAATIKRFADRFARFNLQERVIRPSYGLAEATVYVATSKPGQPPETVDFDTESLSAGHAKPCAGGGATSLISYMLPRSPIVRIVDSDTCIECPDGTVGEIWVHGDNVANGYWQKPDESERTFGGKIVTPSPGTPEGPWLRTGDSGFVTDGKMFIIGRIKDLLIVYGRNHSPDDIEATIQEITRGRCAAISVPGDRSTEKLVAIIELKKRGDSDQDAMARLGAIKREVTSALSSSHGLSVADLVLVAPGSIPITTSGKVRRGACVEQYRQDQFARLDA

[14] = C. albicans growth with fluconazole, confirmation, fluorescence, retest (AID 2467); assay type: functional, cell-based
Streptokinase A = target: T6, Streptokinase A (Streptococcus pyogenes serotype M1, UniProt P10520); test: S. pyogenes streptokinase expression inhibitors, potency, dose response, plasminogen activation absorbance, OD405 (AID 1914); assay type: functional, Streptococcus pyogenes M1 GAS;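 note: secreted streptokinase activity via plasminogen activation per viability signal from cell pellet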
T6 sequence (P10520 whole entry): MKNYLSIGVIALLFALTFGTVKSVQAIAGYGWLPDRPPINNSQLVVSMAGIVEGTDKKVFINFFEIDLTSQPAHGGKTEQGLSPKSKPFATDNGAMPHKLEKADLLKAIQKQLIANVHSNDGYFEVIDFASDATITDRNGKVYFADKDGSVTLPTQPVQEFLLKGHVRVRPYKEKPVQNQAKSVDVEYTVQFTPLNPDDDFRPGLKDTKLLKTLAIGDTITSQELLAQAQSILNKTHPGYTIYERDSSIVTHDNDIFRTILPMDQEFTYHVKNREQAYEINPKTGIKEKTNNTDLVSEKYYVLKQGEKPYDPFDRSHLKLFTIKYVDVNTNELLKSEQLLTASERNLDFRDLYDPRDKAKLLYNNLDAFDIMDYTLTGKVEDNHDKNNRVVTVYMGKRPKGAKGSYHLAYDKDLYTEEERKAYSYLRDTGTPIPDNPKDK

Sequence of Albumin (P02769 whole entry): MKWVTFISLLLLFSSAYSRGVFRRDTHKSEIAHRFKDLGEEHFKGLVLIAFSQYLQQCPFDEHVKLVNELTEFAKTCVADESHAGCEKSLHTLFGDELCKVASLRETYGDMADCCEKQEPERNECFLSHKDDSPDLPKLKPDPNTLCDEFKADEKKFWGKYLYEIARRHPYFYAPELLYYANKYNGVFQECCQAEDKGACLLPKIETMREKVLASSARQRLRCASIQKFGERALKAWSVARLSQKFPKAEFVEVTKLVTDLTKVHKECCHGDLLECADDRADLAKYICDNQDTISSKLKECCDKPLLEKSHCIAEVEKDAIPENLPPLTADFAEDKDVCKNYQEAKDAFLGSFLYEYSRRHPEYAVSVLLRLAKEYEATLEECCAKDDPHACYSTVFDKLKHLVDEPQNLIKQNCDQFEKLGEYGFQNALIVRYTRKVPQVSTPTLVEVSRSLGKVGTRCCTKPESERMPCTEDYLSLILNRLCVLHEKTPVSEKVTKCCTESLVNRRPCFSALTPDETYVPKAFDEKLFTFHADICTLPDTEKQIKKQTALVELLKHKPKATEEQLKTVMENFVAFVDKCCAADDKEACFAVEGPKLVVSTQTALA
Sequence of Paired box protein Pax-8 (Q06710 whole entry): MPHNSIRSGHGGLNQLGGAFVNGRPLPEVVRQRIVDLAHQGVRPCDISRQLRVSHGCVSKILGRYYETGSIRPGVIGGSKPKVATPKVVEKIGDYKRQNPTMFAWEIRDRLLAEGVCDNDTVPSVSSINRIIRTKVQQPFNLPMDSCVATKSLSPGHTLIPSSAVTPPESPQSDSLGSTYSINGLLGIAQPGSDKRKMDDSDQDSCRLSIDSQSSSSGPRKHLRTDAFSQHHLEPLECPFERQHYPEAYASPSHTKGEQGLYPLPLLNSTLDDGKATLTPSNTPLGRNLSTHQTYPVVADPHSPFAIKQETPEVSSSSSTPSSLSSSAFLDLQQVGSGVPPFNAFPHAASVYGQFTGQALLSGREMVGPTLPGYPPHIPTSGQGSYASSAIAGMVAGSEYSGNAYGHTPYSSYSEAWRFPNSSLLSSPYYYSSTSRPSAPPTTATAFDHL
Sequence of Eukaryotic translation initiation factor 4E (P63073 whole entry): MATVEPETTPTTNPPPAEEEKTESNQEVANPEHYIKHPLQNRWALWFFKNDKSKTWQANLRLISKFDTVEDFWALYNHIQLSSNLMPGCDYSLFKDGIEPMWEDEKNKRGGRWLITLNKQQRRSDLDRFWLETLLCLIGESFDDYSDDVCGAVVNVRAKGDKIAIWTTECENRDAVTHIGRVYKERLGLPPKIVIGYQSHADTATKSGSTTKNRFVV

SMILES | EC50 [1] | IC50 [2] | EC50 [3] | EC50 [4] | EC50 [5] | EC50 [6] | AC50 (INS1) | AC50 (Paired box protein Pax-8) | AC50 [7] | EC50 [8] | IC50 [9] | IC50 [10] | EC50 [11] | IC50 (Aminopeptidase N) | EC50 [12] | IC50 (Albumin) | EC50 (Streptococcus) | AC50 [13] | EC50 [14] | EC50 (Streptokinase A)
COc1ccc(/C=N/Nc2cc(C)nc3ccc(Br)cc23)cc1 | 8.92 µM (active) | > 20 µM (inactive) | 1.55 µM (active) | > 260 µM (inactive) | 8.17 µM (active) | > 120 µM (not active) | 5.79 µM (active) | 8.78 µM (active) | 26.8 µM (active) | 7.61 µM (active) | – | – | – | – | – | – | – | – | – | –
O=[N+]([O-])c1cc(Br)c(O)c(/C=N/Nc2nnnn2-c2cccc3ccccc23)c1 | – | – | – | – | – | – | – | – | – | – | 30.2 µM (active) | > 64 µM (inactive) | > 150 µM (inconclusive) | 6.79 µM (active) | 3.69 µM (active) | > 94.1 µM (inactive) | > 150 µM (not active) | 15.6 µM (active) | > 38 µM (not active) | > 150 µM (not active)
